According to ChEMBL document CHEMBL1201862, “PubChem BioAssay data set” (2004):
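1) Cells in 96-well plates. 2) Compound, 48 h, 5 concentrations. 3) Linear interpolation between surrounding doses. 4) Unreached endpoint = highest concentration. The concentration for 50% growth inhibition is given as GI50.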 The source made the active and inactive calls. Cut-off read from the data, not from the text of the source: active = GI50 up to about 1.1 µM and inactive = higher.

What was measured:
Experiment in all cases: growth of human tumour cells (NCI), 48 h
[1] = system: UACC-257
[2] = system: HCT-15
[3] = system: SF-295
[4] = system: SF-268
[5] = system: TK-10
[6] = system: NCI-H522
[7] = system: OVCAR-5
[8] = system: OVCAR-3
[9] = system: NCI-H460
[10] = system: HCT-116
[11] = system: COLO 205
[12] = system: DLD-1
[13] = system: UO-31
[14] = system: Malme-3M
[15] = system: NCI-H23
[16] = system: HOP-62
[17] = system: A549
[18] = system: MOLT-4
[19] = system: MCF7
[20] = system: 786-0

SMILES | GI50 [1] | GI50 [2] [µM] | GI50 [3] | GI50 [4] | GI50 [5] | GI50 [6] | GI50 [7] | GI50 [8] | GI50 [9] | GI50 [10] | GI50 [11] | GI50 [12] | GI50 [13] | GI50 [14] | GI50 [15] | GI50 [16] | GI50 [17] | GI50 [18] | GI50 [19] | GI50 [20]
COC(=O)C(=O)C(C(=O)Nc1cccc(C)c1C)C1Sc2ccccc2NC1=O (centres undefined) | 16.4 µM (inactive) | 11.4 | 12.1 µM (inactive) | 17.6 µM (inactive) | > 25 µM (inactive) | 15.8 µM (inactive) | > 25 µM (inactive) | 20 µM (inactive) | 13.4 µM (inactive) | 8.22 µM (inactive) | 8.97 µM (inactive) | 11.2 µM (inactive) | > 25 µM (inactive) | 6.37 µM (inactive) | > 25 µM (inactive) | 19.6 µM (inactive) | 10.9 µM (inactive) | > 25 µM (inactive) | – | –
Cc1cc(C)c(C2=NO[C@@H]3[C@H]2C(=O)C=C2N(Cc4ccccc4)CCO[C@@]23O)c(C)c1 | > 100 µM (inactive) | > 100 | > 100 µM (inactive) | > 100 µM (inactive) | – | > 100 µM (inactive) | > 100 µM (inactive) | > 100 µM (inactive) | > 100 µM (inactive) | > 100 µM (inactive) | > 100 µM (inactive) | > 100 µM (inactive) | > 100 µM (inactive) | > 100 µM (inactive) | > 100 µM (inactive) | > 100 µM (inactive) | > 100 µM (inactive) | > 100 µM (inactive) | > 100 µM (inactive) | –
CN(C)CCNC(=O)c1ccc(Cl)c2ccc(-c3ccccc3)nc12 | 4.04 µM (inactive) | 3.42 | 2.96 µM (inactive) | 4.45 µM (inactive) | – | 3.89 µM (inactive) | 3.49 µM (inactive) | 5.4 µM (inactive) | 2.07 µM (inactive) | 1.88 µM (inactive) | 1.61 µM (inactive) | 2.92 µM (inactive) | 1.77 µM (inactive) | 3.52 µM (inactive) | 5.38 µM (inactive) | 1.52 µM (inactive) | 2.92 µM (inactive) | 1.82 µM (inactive) | 3.31 µM (inactive) | –
O=S(O)CCCCSSCCCCS(=O)(=O)S | 21.1 µM (inactive) | 59 | 35.5 µM (inactive) | 35.6 µM (inactive) | 42.6 µM (inactive) | 19.3 µM (inactive) | > 100 µM (inactive) | 49.2 µM (inactive) | 64.3 µM (inactive) | > 100 µM (inactive) | 48.5 µM (inactive) | > 100 µM (inactive) | 51.3 µM (inactive) | 17.6 µM (inactive) | 53.6 µM (inactive) | > 100 µM (inactive) | 40.7 µM (inactive) | 2 µM (inactive) | – | > 100 µM (inactive)
COCC1N=C(c2cc(OC)c(OC)c(OC)c2-c2cc3c(cc2[C@@H](C)O)OCO3)O[C@H]1c1ccccc1 (some centres undefined) | > 100 µM (inactive) | > 100 | 57.7 µM (inactive) | > 66.2 µM (inactive) | – | 36.2 µM (inactive) | > 73.8 µM (inactive) | 50 µM (inactive) | > 71.8 µM (inactive) | > 100 µM (inactive) | > 100 µM (inactive) | > 89.7 µM (inactive) | > 100 µM (inactive) | > 80.5 µM (inactive) | 51.6 µM (inactive) | 86.3 µM (inactive) | > 57.3 µM (inactive) | > 100 µM (inactive) | > 61.1 µM (inactive) | –
COc1cc(C2c3cc4c(cc3[C@@H](Nc3cccc([N+](=O)[O-])c3)C3COC(=O)[C@H]23)OCO4)cc(OC)c1O (some centres undefined) | 4.73 µM (inactive) | 1.39 | 1.36 µM (inactive) | 2.91 µM (inactive) | – | 2.83 µM (inactive) | 2.16 µM (inactive) | 5.69 µM (inactive) | 0.02 µM (active) | 1.99 µM (inactive) | 1.35 µM (inactive) | 1.93 µM (inactive) | 2.23 µM (inactive) | 2.62 µM (inactive) | 1.55 µM (inactive) | 0.796 µM (active) | 0.2 µM (active) | 0.29 µM (active) | 0.944 µM (active) | –
